Experiments:
[1] = Plasma concentration in Balb-C mouse at 100 umol/kg, po after 1 hr; type: ADME, organism-based
[2] = Plasma concentration in Balb-C mouse at 100 umol/kg, po after 6 hrs; type: ADME, organism-based

O=C(O)c1cnn(-c2nc3cc(C(F)(F)F)c(F)cc3[nH]2)c1
concentration at 1 h [1]: 14 µM
concentration at 6 h [2]: 0.1 µM
